From publication PMC3691235, “Discovery of a Novel Dual Fungal CYP51/Human 5-Lipoxygenase Inhibitor: Implications for Anti-Fungal Therapy” (PLoS ONE, 2013)
Read-outs that look alike come from different tables or passages of the source.

What was measured:
Assay type in all cases: biochemical
[1] = target: T1, Human leukocyte 5-lipoxygenase (Homo sapiens, UniProt P09917); experiment: Lipoxygenase UV-based inhibitor assay, 5-LOX
T1 construct: made in house
T1 sequence (P09917 1-674): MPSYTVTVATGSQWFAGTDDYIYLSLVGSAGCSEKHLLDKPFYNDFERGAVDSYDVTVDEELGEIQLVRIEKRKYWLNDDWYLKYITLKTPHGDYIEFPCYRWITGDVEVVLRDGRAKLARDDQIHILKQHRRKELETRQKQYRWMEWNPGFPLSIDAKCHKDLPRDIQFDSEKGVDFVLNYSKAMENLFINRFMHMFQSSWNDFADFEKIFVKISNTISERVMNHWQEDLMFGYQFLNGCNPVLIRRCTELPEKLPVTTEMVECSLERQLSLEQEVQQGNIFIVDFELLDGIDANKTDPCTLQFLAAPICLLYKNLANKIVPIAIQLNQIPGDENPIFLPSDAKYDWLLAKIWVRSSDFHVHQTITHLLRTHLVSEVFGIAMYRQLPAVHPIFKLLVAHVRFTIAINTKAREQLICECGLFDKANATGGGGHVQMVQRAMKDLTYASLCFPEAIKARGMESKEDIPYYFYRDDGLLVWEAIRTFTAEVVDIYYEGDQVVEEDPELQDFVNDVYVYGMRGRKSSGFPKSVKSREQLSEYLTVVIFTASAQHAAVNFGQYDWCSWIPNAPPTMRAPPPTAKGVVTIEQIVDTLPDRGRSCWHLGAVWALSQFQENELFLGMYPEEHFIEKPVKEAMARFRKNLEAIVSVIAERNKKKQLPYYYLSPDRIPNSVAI
Protocol: (§1) Human leukocyte 5-lipoxygenase was expressed as a non-tagged protein and used as a crude ammonium sulfate protein fraction, as published previously.
(§2) Inhibitor potencies were evaluated through use of the standard UV-based inhibitor assay. The initial rates were determined by following the formation of the conjugated diene product at 234 nm (ε = 25,000 M^−1 cm^−1) with a Perkin-Elmer Lambda 40 UV/Vis spectrophotometer at one substrate concentration and varying inhibitor concentrations. All reactions were 2 mL in volume and constantly stirred using a magnetic stir bar at room temperature (23°C), with the enzyme specific buffer conditions outlined in Table 1. The substrate used for the various isozymes was arachidonic acid (AA) for 5-LOX, 12-LOX, and 15-LOX-2 and linoleic acid (LA) for 15-LOX-1, where concentrations were quantitatively determined by allowing the enzymatic reaction to go to completion. IC50 values were obtained by determining the initial rate at various inhibitor concentrations and plotting them against inhibitor concentration, followed by a hyperbolic saturation curve fit. The data used for the saturation curves were performed in duplicate or triplicate, depending on the quality of the data. […] Inhibitors were stored at −20°C in DMSO. […] The solvent isotope effect of the inhibitor IC50 was investigated utilizing the same conditions and methods as stated above. The pH of the buffered D2O was determined as reported previously.

[2] = target: T2, human platelet 12-lipoxygenase (12-LOX) (Homo sapiens, UniProt P18054); experiment: Lipoxygenase UV-based inhibitor assay, 12-LOX; settings: 10 µM AA, pH 8.0
T2 construct: His6 (N); made in house
T2 sequence (P18054 1-663): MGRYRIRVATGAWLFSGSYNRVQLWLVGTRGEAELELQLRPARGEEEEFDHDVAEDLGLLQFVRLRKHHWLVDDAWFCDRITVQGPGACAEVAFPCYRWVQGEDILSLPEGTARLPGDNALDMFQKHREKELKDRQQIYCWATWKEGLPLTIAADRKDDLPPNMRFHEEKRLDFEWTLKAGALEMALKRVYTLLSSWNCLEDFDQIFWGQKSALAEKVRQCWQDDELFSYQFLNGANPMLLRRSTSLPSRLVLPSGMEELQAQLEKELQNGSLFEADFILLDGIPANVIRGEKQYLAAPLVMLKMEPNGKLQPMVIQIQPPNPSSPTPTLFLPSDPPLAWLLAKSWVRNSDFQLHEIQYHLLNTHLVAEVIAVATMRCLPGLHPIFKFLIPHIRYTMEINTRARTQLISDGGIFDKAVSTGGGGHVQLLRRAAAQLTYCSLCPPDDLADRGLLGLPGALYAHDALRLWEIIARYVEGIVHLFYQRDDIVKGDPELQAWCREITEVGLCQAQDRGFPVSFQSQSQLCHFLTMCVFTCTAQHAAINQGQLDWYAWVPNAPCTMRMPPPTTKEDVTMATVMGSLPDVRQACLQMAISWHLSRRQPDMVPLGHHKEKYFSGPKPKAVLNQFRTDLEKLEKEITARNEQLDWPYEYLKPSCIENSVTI
Protocol: as §1, §2

Ovine COX-1 = target: T3, Ovine COX-1 (Ovis aries, UniProt P05979); experiment: Cyclooxygenase assay (oxygen electrode), COX-1
T3 construct: purchased Cayman chemical 60100
T3 sequence (P05979 25-600): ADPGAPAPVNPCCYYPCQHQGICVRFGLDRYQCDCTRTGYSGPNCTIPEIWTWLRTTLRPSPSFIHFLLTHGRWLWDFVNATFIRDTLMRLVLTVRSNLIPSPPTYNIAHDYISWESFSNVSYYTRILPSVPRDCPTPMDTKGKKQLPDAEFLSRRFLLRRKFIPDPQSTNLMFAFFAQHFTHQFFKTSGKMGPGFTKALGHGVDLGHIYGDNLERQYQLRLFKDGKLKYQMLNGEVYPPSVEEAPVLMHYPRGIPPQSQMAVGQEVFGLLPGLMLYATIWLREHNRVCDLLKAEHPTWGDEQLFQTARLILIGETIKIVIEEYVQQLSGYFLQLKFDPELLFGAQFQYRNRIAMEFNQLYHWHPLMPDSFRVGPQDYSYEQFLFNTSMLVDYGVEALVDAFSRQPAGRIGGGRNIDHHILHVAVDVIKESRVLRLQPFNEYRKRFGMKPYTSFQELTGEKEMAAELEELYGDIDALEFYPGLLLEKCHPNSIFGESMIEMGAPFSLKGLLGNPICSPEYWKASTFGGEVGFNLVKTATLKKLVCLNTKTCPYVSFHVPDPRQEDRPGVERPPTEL
Protocol: Ovine COX-1 (Cat. No. 60100) and human COX-2 (Cat. No. 60122) were purchased from Cayman chemical. Approximately 2 µg of either COX-1 or COX-2 were added to buffer containing 100 µM AA, 0.1 M Tris-HCl buffer (pH 8.0), 5 mM EDTA, 2 mM phenol and 1 µM hematin at 37°C. Data was collected using a Hansatech DW1 oxygen electrode chamber, as described before. Inhibitor or vehicle were mixed with the respective COX in buffer within the electrode cell, the reaction was initiated by the addition of AA, followed by monitoring of rate of oxygen consumption. Ibuprofen, aspirin and indomethacin, and the carrier solvent, DMSO, were used as positive and negative controls, respectively.

[3] = UV-based assay, 10 µM AA, pH 7.3, crude enzyme, error = SD, read-out: 5-LOX IC50
[4] = 100 µM AA, pH 8.0, 37°C, oxygen consumption, read-out: COX-1 IC50
[5] = UV-based assay, read-out: 5-LOX IC50

| SMILES | increase in 5-LOX IC50 in D2O relative to H2O (solvent isotope effect) ([1]; D2O buffer vs H2O) [fold] | IC50 [1, 3] [µM] | IC50 [2] [µM] | IC50 (Ovine COX-1; [4]) [µM] | selectivity for 5-LOX over 12-LOX, 15-LOX-1, 15-LOX-2, COX-1 and COX-2 [1] | IC50 [1, 5] [µM] | IC50 [1] [µM] | IC50 (Ovine COX-1) [µM] |
| --- | --- | --- | --- | --- | --- | --- | --- | --- |
| CC(=O)N1CCN(c2ccc(NCc3ccc(-c4cccc(Cl)c4)o3)cc2)CC1 [Compound 13] | 2.4 | 0.52 | > 50 | > 150 | – | – | – | – |
| CC(=O)N1CCN(c2ccc(NCC3COC(Cn4ccnc4)(c4ccc(Cl)cc4Cl)O3)cc2)CC1 (centres unmarked) [ketaminazole (16), ketaminazole] | – | 0.7 | > 150 | > 150 | over 100 times | 0.7 | – | – |
| CC(=O)N1CCN(c2ccc(OCC3COC(Cn4ccnc4)(c4ccc(Cl)cc4Cl)O3)cc2)CC1 (centres unmarked) [ketoconazole, reference compound] | – | – | > 150 | – | – | – | > 50 | > 50 |
| CC(C)(C)OC(=O)N1CCN(c2ccc(NCc3ccc(-c4ccc(C#N)cc4)o3)cc2)CC1 [Compound 1] | – | 0.17 | > 150 | > 50 | – | – | – | – |
| Cc1cc(C2CCCCC2)n(O)c(=O)c1 [ciclopirox, reference compound] | – | 11 ± 1 | > 100 | > 50 | – | – | – | – |
| CC[C@](O)(c1nnc(NCc2ccc3c(-c4ccc(F)cc4)cc(=O)oc3c2)o1)C(F)(F)F [setileuton, reference compound] | – | – | > 150 | – | – | 0.06 ± 0.006 | – | – |
| N#Cc1ccc(-c2ccc(CNc3ccc(N4CCCCC4)cc3)o2)cc1 [Compound 14] | – | 0.33 | > 150 | > 150 | – | – | – | – |
